Measurements as given in patent publication US20200002377A1, “COMPOUNDS USEFUL FOR THE TREATMENT AND/OR CARE OF THE SKIN, HAIR, NAILS AND/OR MUCOUS MEMBRANES” (LUBRIZOL ADVANCED MATERIALS, INC., priority 2016, published 2020).
Residues, ends and D or L forms follow the SMILES beside them. *: point of attachment. Palmitoyl = CCCCCCCCCCCCCCCC(=O)*; NHhexadecyl = CCCCCCCCCCCCCCCCN*; Myristoyl = CCCCCCCCCCCCCC(=O)*; NHHex = CCCCCCN*

Tests used:
[1] = system: Nuclear Factor Kappa B subunit 1 (NFKB1); test: Innate immune response gene expression in HEKa, real time PCR array; type: cell-based, human; details: 50 μg/ml, 24 h
Procedure: HEKa cells (Life Technologies) are seeded at 6.0×10^5 cells/well in 6-well plates and incubated in culture medium Epillfe™ with defined Growth Supplement (EDGS, Life Technologies), at 37° C. in a water-saturated atmosphere of 95% air and 5% CO2. After 24 hours of incubation under these conditions, medium is removed and cells are incubated with 50 μg/ml (w/v) of a peptide of the invention (see Table 16) in fresh culture medium keeping two wells where HEKa cells are incubated with medium only (basal conditions) at 37° C. and 5% CO2.
After 24 h of incubation, the cells are lysed directly in the wells following the protocol described on the RNeasy™ Mini kit (Qiagen) according to the manufacturer's protocol. The lysed cells are homogenized and the RNases are inactivated. The genomic DNA is removed from the samples by using gDNA Eliminator spin columns (Qiagen). Then the samples are passed through special RNA binding columns (Qiagen) and, after several microcentrifugation washes to eliminate contaminants and impurities, the purified RNA is eluted with 50 μl of ultrapure water. Quantification and analysis of purity of RNA samples are performed after RNA elution with a biophotometer (Eppendorf). 1 μg of high-quality RNA is retrotranscribed with iScript™ advanced (BioRad) in a final volume of 20 μl·Complete reaction mix is incubated in a thermal cycler (Eppendorf) at 42° C. for 30 minutes, and the reactions are stopped at 85° C. for 5 minutes. Complementary DNA is amplified by qPCR in a real-time PCR thermocycler (BioRad) using SYBR®Green supermix (BioRad) and a customized plate for use with SYBR®Green (BioRad). SYBR®Green binds to double-stranded DNA molecules and emits fluorescence which is quantified and is proportional to the amount of the product in the PCR reaction. Cycling conditions in BioRad CFX96™ instrument are 95° C. for 3 minutes, followed by 40 cycles of denaturing at 95° C. for 5 seconds, annealing and elongation at 60° C. for 30 seconds. GAPDH (Glyceraldehyde 3-phosphate dehydrogenase), TBP (TATA box binding protein) and HRPT1 (hypoxanthine phosphoribosyltransferase 1) are used as endogenous controls. Fold change relative to the expression of the sample genes and reference genes is calculated using normalized expression (ΔΔ(Ct)) method with default threshold values using CFX Manager Software (BioRad).
Genes analyzed are Chemokine (C-C motif) Ligand 5 (CCL5), Myeloid Differentiation primary response gene 88 (MyD88), Nuclear Factor Kappa B subunit 1 (NFKB1) and interferon Regulatory Factor 3 (IRF3).

[2] = system: Staphylococcus epidermidis; test: Adherence of Staphylococcus epidermidis in keratinocytes (HaCaT) in competition with S. aureus bioparticles; type: cell-based; details: 50 μg/ml, 24 h, basal = 0
Procedure: After that treatment, cells are washed with phosphate-buffered saline (PBS, Sigma) and are then incubated with a solution of Staphylococcus epidermidis (ATCC®12228™, Culture Collections) treated with green-fluorescence calcein AM (Life technologic) and Alexa Fluor 594™ Bioparticles Staphylococcus aureus (ThermoFisher) in PBS for 30 minutes at 37° C. and protected from light. At the end of the incubation period, cells are washed with PBS and fixed in 4% (v/v) paraformaldehyde (PFA, Sigma) for 30 minutes. After rinsing with PBS, the nuclei are stained with Hoechst 33342, trihydrochloride trihydrate (ThermoFisher) in PBS for 10 minutes before analysis.
Cellular imaging is performed by fluorescence microscopy using the Operetta® High Content Imaging System (PerkinElmer). From each fluorescence image, Staphylococcus epidermidis is quantified as a number of spots and normalized against the number of keratinocyte nuclei and the total bacteria number (understood as the addition of detected S. epidermidis spots and S. aureus bioparticles). Each value obtained is normalized respect to basal conditions (non-treated keratinocytes). An image is taken in three different fields per well. 12 representative images from each condition are analyzed with Harmony software (PerkinElmer).
The normalized percentage of Staphylococcus epidermidis respect to basal conditions in treated keratinocytes is represented in Table 17.

| Molecule | NFKB1 fold induction respect to basal conditions [1] | S. epidermidis (%), normalized percentage respect to basal conditions [2] [%] |
| --- | --- | --- |
| Ac-NEMQRRA-NH2 [PEP-43, Ac-Asn-Glu-Met-Gln-Arg-Arg-Ala-NH2] | 2.56 | 30.17 |
| Ac-EEMERR-NH2 [PEP-47, Ac-Glu-Glu-Met-Glu-Arg-Arg-NH2] | 2.12 | 2.91 |
| Ac-EEMQRRAE-NH2 [PEP-17, Ac-Glu-Glu-Met-Gln-Arg-Arg-Ala-Glu-NH2] | 2.32 | 11.33 |
| Ac-QEMQRRAD-NH2 [PEP-9, Ac-Gln-Glu-Met-Gln-Arg-Arg-Ala-Asp-NH2] | 2.66 | 21.36 |
| Ac-QEMQRR-NH2 [PEP-52, Ac-Gln-Glu-Met-Gln-Arg-Arg-NH2] | 2.57 | – |
| CCCCCCCCCCCCCC(=O)N[C@@H](CCC(=O)O)C(=O)N[C@@H](CCC(=O)O)C(=O)N[C@@H](CCSC)C(=O)N[C@@H](CCC(N)=O)C(=O)N[C@@H](CCCNC(=N)N)C(=O)N[C@@H](CCCCN)C(N)=O [PEP-60, Myr-Glu-Glu-Met-Gln-Arg-Lys-NH2] (Myristoyl-EEMQRK-NH2) | 1.26 | 24.84 |
| Ac-EEMQRRT-NH2 [PEP-41, Ac-Glu-Glu-Met-Gln-Arg-Arg-Thr-NH2] | 2.71 | 35.69 |
| CCCCCCCCCCCCCCCC(=O)N[C@@H](CCC(=O)O)C(=O)N[C@@H](CCC(=O)O)C(=O)N[C@@H](CCSC)C(=O)N[C@@H](CCC(N)=O)C(=O)N[C@@H](CCCNC(=N)N)C(=O)N[C@@H](Cc1c[nH]cn1)C(N)=O [PEP-58, Palm-Glu-Glu-Met-Gln-Arg-His-NH2] (Palmitoyl-EEMQRH-NH2) | 1.87 | – |
| Ac-EELQRR-OH [PEP-63, Ac-Glu-Glu-Leu-Gln-Arg-Arg-OH] | 1.50 | – |
| H-EEMQRRAE-NH2 [PEP-26, H-Glu-Glu-Met-Gln-Arg-Arg-Ala-Glu-NH2] | 2.55 | 18.10 |
| Ac-EEMQRRKD-NH2 [PEP-24, Ac-Glu-Glu-Met-Gln-Arg-Arg-Lys-Asp-NH2] | 2.46 | 10.41 |
| CCCCCCCCCCCCCCCCNC(=O)[C@H](CC(=O)O)NC(=O)[C@H](C)NC(=O)[C@H](CCCNC(=N)N)NC(=O)[C@H](CCCNC(=N)N)NC(=O)[C@H](CCC(N)=O)NC(=O)[C@H](CCSC)NC(=O)[C@H](CCC(=O)O)NC(=O)[C@H](CCC(=O)O)NC(C)=O [PEP-35, Ac-Glu-Glu-Met-Gln-Arg-Arg-Ala-Asp-NHC16H33] (Ac-EEMQRRAD-NHhexadecyl) | 2.79 | 90.22 |
| Ac-EEMDRRAD-NH2 [PEP-13, Ac-Glu-Glu-Met-Asp-Arg-Arg-Ala-Asp-NH2] | 2.60 | 21.79 |
| Ac-EEMQRH-NH2 [PEP-53, Ac-Glu-Glu-Met-Gln-Arg-His-NH2] | 3.37 | – |
| CCCCCCNC(=O)[C@H](CCCNC(=N)N)NC(=O)[C@H](CCCNC(=N)N)NC(=O)[C@H](CCC(N)=O)NC(=O)[C@H](CCSC)NC(=O)[C@H](CCC(=O)O)NC(=O)[C@H](CCC(=O)O)NC(C)=O [PEP-64, Ac-Glu-Glu-Met-Gln-Arg-Arg-NHC6H13] (Ac-EEMQRR-NHHex) | 1.75 | – |
| Ac-EEIERR-NH2 [PEP-55, Ac-Glu-Glu-Ile-Glu-Arg-Arg-NH2] | 3.39 | 2.41 |
| CCCCCCCCCCCCCC(=O)N[C@@H](CCC(=O)O)C(=O)N[C@@H](CCC(=O)O)C(=O)N[C@@H](CCSC)C(=O)N[C@@H](CCC(N)=O)C(=O)N[C@@H](CCCNC(=N)N)C(=O)N[C@@H](CCCNC(=N)N)C(N)=O [PEP-5, Myr-Glu-Glu-Met-Gln-Arg-Arg-NH2] (Myristoyl-EEMQRR-NH2) | 2.64 | 27.52 |
| Ac-EEMERRAD-NH2 [PEP-11, Ac-Glu-Glu-Met-Glu-Arg-Arg-Ala-Asp-NH2] | 2.63 | 4.24 |
| Ac-DEMERRA-NH2 [PEP-40, Ac-Asp-Glu-Met-Glu-Arg-Arg-Ala-NH2] | 2.55 | 20.56 |
| Ac-EEMQKK-NH2 [PEP-54, Ac-Glu-Glu-Met-Gln-Lys-Lys-NH2] | 2.15 | 10.91 |

| Molecule | NFKB1 fold induction respect to basal conditions [1] | S. epidermidis (%), normalized percentage respect to basal conditions [2] [%] |
| --- | --- | --- |
| Ac-EEMQRRTD-NH2 [PEP-21, Ac-Glu-Glu-Met-Gln-Arg-Arg-Thr-Asp-NH2] | 2.39 | 16.21 |
| Ac-EEMERRA-NH2 [PEP-39, Ac-Glu-Glu-Met-Glu-Arg-Arg-Ala-NH2] | 2.62 | 71.97 |
| CCCCCCCCCCCCCC(=O)N[C@@H](CCC(=O)O)C(=O)N[C@@H](CCC(=O)O)C(=O)N[C@@H](CCSC)C(=O)N[C@@H](CCC(N)=O)C(=O)N[C@@H](CCCNC(=N)N)C(=O)N[C@@H](CCCNC(=N)N)C(=O)N[C@@H](C)C(=O)N[C@@H](CCC(=O)O)C(N)=O [PEP-29, Myr-Glu-Glu-Met-Gln-Arg-Arg-Ala-Glu-NH2] (Myristoyl-EEMQRRAE-NH2) | 2.72 | 33.02 |
| Ac-EEMQRRG-NH2 [PEP-38, Ac-Glu-Glu-Met-Gln-Arg-Arg-Gly-NH2] | 2.40 | 49.00 |
| Ac-EEMQRRGD-NH2 [PEP-16, Ac-Glu-Glu-Met-Gln-Arg-Arg-Gly-Asp-NH2] | 2.47 | 51.11 |
| Ac-EEMQRK-NH2 [PEP-45, Ac-Glu-Glu-Met-Gln-Arg-Lys-NH2] | 2.21 | 5.48 |
| Ac-EEMQRK-OH [PEP-62, Ac-Glu-Glu-Met-Gln-Arg-Lys-OH] | 1.40 | 6.78 |
| CCCCCCCCCCCCCCCC(=O)N[C@@H](CCC(=O)O)C(=O)N[C@@H](CCC(=O)O)C(=O)N[C@@H](CCSC)C(=O)N[C@@H](CCC(N)=O)C(=O)N[C@@H](CCCNC(=N)N)C(=O)N[C@@H](CCCNC(=N)N)C(N)=O [PEP-6, Palm-Glu-Glu-Met-Gln-Arg-Arg-NH2] (Palmitoyl-EEMQRR-NH2) | 2.62 | 29.75 |
| Ac-QEMQRRAD-OH [PEP-32, Ac-Gln-Glu-Met-Gln-Arg-Arg-Ala-Asp-OH] | 2.56 | 13.89 |
| Ac-EEMQRHAD-NH2 [PEP-20, Ac-Glu-Glu-Met-Gln-Arg-His-Ala-Asp-NH2] | 2.71 | 16.66 |
| CCCCCCCCCCCCCCCC(=O)N[C@@H](CCC(=O)O)C(=O)N[C@@H](CCC(=O)O)C(=O)N[C@@H](CCSC)C(=O)N[C@@H](CCC(N)=O)C(=O)N[C@@H](CCCNC(=N)N)C(=O)N[C@@H](CCCNC(=N)N)C(=O)N[C@@H](C)C(=O)N[C@@H](CC(=O)O)C(N)=O [PEP-27, Palm-Glu-Glu-Met-Gln-Arg-Arg-Ala-Asp-NH2] (Palmitoyl-EEMQRRAD-NH2) | 2.76 | 27.62 |
| Ac-Glu-Glu-Leu-Gln-Arg-Arg-NH2 (Ac-EELQRR-NH2) [PEP-66] | – | 45.38 |
| Ac-EEMQRRV-NH2 [PEP-44, Ac-Glu-Glu-Met-Gln-Arg-Arg-Val-NH2] | 1.24 | – |
| Ac-EELQRRAD-NH2 [PEP-10, Ac-Glu-Glu-Leu-Gln-Arg-Arg-Ala-Asp-NH2] | 2.46 | 11.54 |
| Ac-EEMQRRSD-NH2 [PEP-15, Ac-Glu-Glu-Met-Gln-Arg-Arg-Ser-Asp-NH2] | 2.57 | 15.10 |
| H-EEMQRRAN-NH2 [PEP-25, H-Glu-Glu-Met-Gln-Arg-Arg-Ala-Asn-NH2] | 2.31 | – |
| CCCCCCNC(=O)[C@H](CCCNC(=N)N)NC(=O)[C@H](CCCNC(=N)N)NC(=O)[C@H](CCC(N)=O)NC(=O)[C@H](CCSC)NC(=O)[C@H](CCC(=O)O)NC(=O)[C@@H](N)CCC(=O)O [PEP-65, H-Glu-Glu-Met-Gln-Arg-Arg-NCH6H13] (H-EEMQRR-NHHex) | 2.41 | – |
| Ac-EEMQRRAE-OH [PEP-30, Ac-Glu-Glu-Met-Gln-Arg-Arg-Ala-Glu-OH] | 2.53 | – |
| H-Glu-Glu-Met-Gln-Arg-Arg-NHC16H33 (H-EEMQRR-NHhexadecyl) [PEP-67] | – | 14.91 |
